# In patent publication US20250215013A1, “SUBSTITUTED TRICYCLIC COMPOUNDS AS PARP INHIBITORS AND THE USE THEREOF” (IMPACT THERAPEUTICS (SHANGHAI), INC., priority 2022, published 2025):
# Test system: MDA-MB-436 cells
# Assay: Growth inhibition assay against BRCA mutant human breast cancer MDA-MB-436 cell line (CCK-8)
# Type: cell-based
# Settings: Homo sapiens, MDA-MB-436, […], proliferation of MDA-MB-436 cells, 7 days
row,SMILES,IC50 [nM]
1,"CNc1nccc2cc(N3CCN(Cc4ccc5c([nH]c(=O)c6c(C)cnn65)c4F)CC3)cnc12 [Example 157, 6-fluoro-3-methyl-7-((4-(8-(methylamino)-1,7-naphthyridin-3-yl)piperazin-1-yl)methyl)pyrazolo[1,5-a]quinoxalin-4(5H)-one]",42.3
2,"CNC(=O)c1ccc(N2CCN(Cc3ccc4c([nH]c(=O)c5c(C)cnn54)c3F)CC2)cc1F [Example 161, 6-fluoro-7-((4-(3-fluoro-4-(methylcarbamoyl)phenyl)piperazin-1-yl)methyl)-3-methylpyrazolo[1,5-a]quinoxalin-4(5H)-one]",> 100
3,"CNC(=O)c1ccc(N2CCN(Cc3ccc4c([nH]c(=O)c5cncn54)c3F)CC2)cn1 [Example 145, 7-((4-(6-(methylcarbamoyl)pyridin-3-yl)piperazin-1-yl)methyl)-6-fluoroimidazo[1,5-a]quinoxalin-4(5H)-one]",> 100
4,"CNC(=O)c1ccc(N2CCN(Cc3ccc4c([nH]c(=O)c5c(C)cnn54)c3F)CC2)c(Cl)c1 [Example 155, 6-fluoro-7-((4-(2-chloro-4-(methylcarbamoyl)phenyl)piperazin-1-yl)methyl)-3-methylpyrazolo[1,5-a]quinoxalin-4(5H)-one]",66.5
5,"CNC(=O)c1ccc(N2CCN(Cc3ccc4c([nH]c(=O)c5occc54)c3F)CC2)cn1 [Example 148, 6-fluoro-7-((4-(6-(methylcarbamoyl)pyridin-3-yl)piperazin-1-yl)methyl)furo[2,3-c]quinolin-4(5H)-one]",29.2
6,"CNC(=O)c1ccc(N2CCN(Cc3ccc4c([nH]c(=O)c5c(C)cnn54)c3F)CC2)c(F)c1 [Example 154, 6-fluoro-7-((4-(2-fluoro-4-(methylcarbamoyl)phenyl)piperazin-1-yl)methyl)-3-methylpyrazolo[1,5-a]quinoxalin-4(5H)-one]",95.9
7,"CNC(=O)c1ccc(N2CCN(Cc3ccc4c([nH]c(=O)c5occc54)c3Cl)CC2)c(F)n1 [Example 105, 7-((4-(2-fluoro-6-(methylcarbamoyl)pyridin-3-yl)piperazin-1-yl)methyl)-6-chlorofuro[2,3-c]quinolin-4(5H)-one]",> 100
8,"CNC(=O)c1ccc(N2CCN(Cc3ccc4c([nH]c(=O)c5c(C)cnn54)c3C)CC2)c(C)n1 [Example 172, 7-((4-(2-methyl-6-(methylcarbamoyl)pyridin-3-yl)piperazin-1-yl)methyl)-3,6-dimethylpyrazolo[1,5-a]quinoxalin-4(5H)-one]",42.5
9,"CNC(=O)c1ccc(N2CCN(Cc3cc4[nH]c(=O)c5ocnc5c4cc3F)CC2)c(F)n1 [Example 94, 7-((4-(2-fluoro-6-(methylcarbamoyl)pyridin-3-yl)piperazin-1-yl)methyl)-8-fluorooxazolo[5,4-c]quinolin-4(5H)-one]",> 100
10,"CNC(=O)c1ccc(N2CCN(Cc3ccc4c([nH]c(=O)c5cocc54)c3F)CC2)cn1 [Example 149, 6-fluoro-7-((4-(6-(methylcarbamoyl)pyridin-3-yl)piperazin-1-yl)methyl)furo[3,4-c]quinolin-4(5H)-one]",74.5
11,"CNC(=O)c1ccc(N2CCN(Cc3ccc4c([nH]c(=O)c5ncn(C)c54)c3F)CC2)c(F)n1 [Example 100, 7-((4-(2-fluoro-6-(methylcarbamoyl)pyridin-3-yl)piperazin-1-yl)methyl)-6-fluoro-1-methyl-1,5-dihydro-4H-imidazo[4,5-c]quinolin-4-one]",> 100

# Now from value to compound:
row,IC50 [nM],SMILES
1,23.6,"CNC(=O)c1ccc(N2CCN(Cc3ccc4c([nH]c(=O)n5ccnc45)c3F)CC2)c(C)n1 [Example 50, 8-((4-(2-methyl-6-(methylcarbamoyl)pyridin-3-yl)piperazin-1-yl)methyl)-7-fluoroimidazo[1,2-c]quinazolin-5(6H)-one]"
2,23,"CNC(=O)c1ccc(N2CCN(Cc3ccc4c([nH]c(=O)c5occc54)c3F)CC2)c(C(F)F)n1 [Example 101, 7-((4-(2-(difluoromethyl)-6-(methylcarbamoyl)pyridin-3-yl)piperazin-1-yl)methyl)-6-fluorofuro[2,3-c]quinolin-4(5H)-one]"
3,21.7,"CNC(=O)c1ccc(N2CCN(Cc3ccc4c([nH]c(=O)c5cn(C)nc54)c3F)CC2)c(C)n1 [Example 88, 7-((4-(2-methyl-6-(methylcarbamoyl)pyridin-3-yl)piperazin-1-yl)methyl)-6-fluoro-2-methyl-2,5-dihydro-4H-pyrazolo[4,3-c]quinolin-4-one]"
4,20.1,"CNC(=O)c1ccc(N2CCN(Cc3ccc4c([nH]c(=O)c5c(C)cnn54)c3F)CC2)c(C)c1 [Example 162, 6-fluoro-7-((4-(2-methyl-4-(methylcarbamoyl)phenyl)piperazin-1-yl)methyl)-3-methylpyrazolo[1,5-a]quinoxalin-4(5H)-one]"
5,17.5,"NC(=O)c1ccc(N2CCN(Cc3ccc4c([nH]c(=O)c5occc54)c3F)CC2)c(F)n1 [Example 106, 7-((4-(2-fluoro-6-carbamoylpyridin-3-yl)piperazin-1-yl)methyl)-6-fluorofuro[2,3-c]quinolin-4(5H)-one]"
6,15.4,"CNC(=O)c1ccc(N2CCN(Cc3ccc4c([nH]c(=O)c5c(F)cnn54)c3F)C[C@H]2C)c(F)n1 [Example 196, (R)-7-((4-(2-fluoro-6-(methylcarbamoyl)pyridin-3-yl)-3-methylpiperazin-1-yl)methyl)-3-6-difluoropyrazolo[1,5-a]quinoxalin-4(5H)-one]"
7,14.4,"CNC(=O)c1ccc(N2CCN(Cc3ccc4c([nH]c(=O)c5c(C)cnn54)c3C)CC2)c(F)n1 [Example 171, 7-((4-(2-fluoro-6-(methylcarbamoyl)pyridin-3-yl)piperazin-1-yl)methyl)-3,6-dimethylpyrazolo[1,5-a]quinoxalin-4(5H)-one]"
8,12.9,"O=c1[nH]c2c(F)c(CN3CCN(c4ccc(-c5nnc[nH]5)nc4F)CC3)ccc2c2ccoc12 [Example 110, 7-((4-(2-fluoro-6-(4H-1,2,4-triazol-3-yl)pyridin-3-yl)piperazin-1-yl)methyl)-6-fluorofuro[2,3-c]quinolin-4(5H)-one]"
9,11.5,"CNC(=O)c1ccc(N2CCN(Cc3ccc4c([nH]c(=O)c5ccoc54)c3F)CC2)cn1 [Example 150, 6-fluoro-7-((4-(6-(methylcarbamoyl)pyridin-3-yl)piperazin-1-yl)methyl)furo[3,2-c]quinolin-4(5H)-one]"
10,9.79,"CNC(=O)c1ccc(N2CCN(Cc3cc4[nH]c(=O)c5c(C)noc5c4cc3F)CC2)c(F)n1 [Example 97, 7-((4-(2-fluoro-6-(methylcarbamoyl)pyridin-3-yl)piperazin-1-yl)methyl)-3-methyl-8-fluoroisoxazolo[4,5-c]quinolin-4(5H)-one]"
11,7.69,"CNC(=O)c1ccc(N2CCN(Cc3ccc4c(c3)[nH]c(=O)c3ncsc34)CC2)c(C)n1 [Example 4, 7-((4-(2-methyl-6-(methylcarbamoyl)pyridin-3-yl)piperazin-1-yl)methyl)thiazolo[4,5-c]quinolin-4(5H)-one]"
12,7.5,"CNC(=O)c1ccc(N2CCN(Cc3ccc4c([nH]c(=O)c5oc(C)cc54)c3F)CC2)c(F)n1 [Example 116, 7-((4-(2-fluoro-6-(methylcarbamoyl)pyridin-3-yl)piperazin-1-yl)methyl)-6-fluoro-2-methylfuro[2,3-c]quinolin-4(5H)-one]"
13,7.24,"CCNC(=O)c1ccc(N2CCN(Cc3ccc4c([nH]c(=O)c5c(C)cnn54)c3F)CC2)c(F)n1 [Example 125, 7-((4-(2-fluoro-6-(ethylcarbamoyl)pyridin-3-yl)piperazin-1-yl)methyl)-6-fluoro-3-methylpyrazolo[1,5-a]quinoxalin-4(5H)-one]"
14,6.08,"Cc1cnn2c1c(=O)[nH]c1c(F)c(CN3CCN(c4ccc(C(=O)N[C@@H]5CCOC5)nc4F)CC3)ccc12 [Example 156, (R)-6-fluoro-7-((4-(2-fluoro-6-((tetrahydrofuran-3-yl)carbamoyl)pyridin-3-yl)piperazin-1-yl)methyl)-3-methylpyrazolo[1,5-a]quinoxalin-4(5H)-one]"
15,5.22,"CNC(=O)c1ccc(N2CCN(Cc3ccc4c(c3)[nH]c(=O)c3cn[nH]c34)CC2)c(C)n1 [Example 7, 7-((4-(2-methyl-6-(methylcarbamoyl)pyridin-3-yl)piperazin-1-yl)methyl)-1,5-dihydro-4H-pyrazolo[4,3-c]quinolin-4-one]"
16,2.13,"CNC(=O)c1ccc(N2CCN(Cc3ccc4c([nH]c(=O)c5c(Cl)cnn54)c3F)CC2)c(C)n1 [Example 59, 7-((4-(2-methyl-6-(methylcarbamoyl)pyridin-3-yl)piperazin-1-yl)methyl)-6-fluoro-3-chloro-pyrazolo[1,5-a]quinoxalin-4(5H)-one]"
17,1.9,"CNC(=O)c1ccc(N2CCN(Cc3ccc4c(c3)[nH]c(=O)c3nocc34)CC2)c(F)n1 [Example 144, 7-((4-(2-fluoro-6-(methylcarbamoyl)pyridin-3-yl)piperazin-1-yl)methyl)isoxazolo[3,4-c]quinolin-4(5H)-one]"
18,1.74,"CNC(=O)c1ccc(N2CCN(Cc3ccc4c(c3)[nH]c(=O)c3cc[nH]c34)CC2)c(C)n1 [Example 23, 7-((4-(2-methyl-6-(methylcarbamoyl)pyridin-3-yl)piperazin-1-yl)methyl)-1,5-dihydro-4H-pyrrolo[3,2-c]quinolin-4-one]"
19,1.32,"CNC(=O)c1ccc(N2CCN(Cc3ccc4c(c3)[nH]c(=O)c3ccoc34)CC2)c(F)n1 [Example 114, 7-((4-(2-fluoro-6-(methylcarbamoyl)pyridin-3-yl)piperazin-1-yl)methyl)furo[3,2-c]quinolin-4(5H)-one]"

# Same assay, conditions: proliferation of MDA-MB-436 cells, 7 days
row,IC50 [nM],SMILES
1,5.27,"CNC(=O)c1ccc(N2CCN(Cc3ccc4c([nH]c(=O)c5c(F)cnn54)c3F)CC2)c(F)n1 [Example 188, 7-((4-(2-fluoro-6-(methylcarbamoyl)pyridin-3-yl)piperazin-1-yl)methyl)-3,6-difluoropyrazolo[1,5-a]quinoxalin-4(5H)-one]"
2,7.87,"CNC(=O)c1ccc(N2CCN(Cc3ccc4c([nH]c(=O)n5nccc45)c3F)CC2)c(C)n1 [Example 119, 8-((4-(2-methyl-6-(methylcarbamoyl)pyridin-3-yl)piperazin-1-yl)methyl)-7-fluoropyrazolo[1,5-c]quinazolin-5(6H)-one]"
